# Patent publication US9695192B2, “Fused heterocyclic compounds as ion channel modulators” (GILEAD SCIENCES, INC., priority 2011, dated 2017)
# Molecular target: wild-type human cardiac sodium channel, hNav1.5 (Homo sapiens, UniProt Q14524)
# Assay: Late INa screening assay (QPatch whole cell patch clamp, tefluthrin-enhanced late sodium current)
# Type: cell-based
# Settings: HEK293 hNav1.5, late INa activated with 10 μM Tefluthrin
# Method: The late sodium current (Late INa) and peak sodium current (Peak INa) assays are performed on an automated electrophysiology platform, QPatch 16X (Sophion Bioscience, Copenhagen, Denmark), which uses the whole cell patch clamp technique to measure currents through the cell membrane of up to 16 cells at a time. The assay uses an HEK293 (human embryonic kidney) cell line heterologously expressing the wild-type human cardiac sodium channel, hNav1.5, purchased from Millipore (Billerica, Mass.). No beta subunits were coexpressed with the Na channel alpha subunit. Cells are maintained with standard tissue culture procedures and stable channel expression is maintained with 400 μg/mL Geneticin in the culture medium. Cells isolated for use on QPatch are incubated for 5 minutes in Detachin 1X (Genlantis, San Diego, USA) at 37° C. to ensure that 80-90% of the cells are single and not part of a cell cluster. Experiments are carried out at 23-25° C.
# For both the Late INa and Peak INa assays, series resistance compensation is set to 100% and series resistance and whole-cell compensation are performed automatically. Currents are digitized at 25 kHz and low-pass filtered at 12 kHz and 10 kHz for the late and peak INa assays, respectively. Currents through open sodium channels are automatically recorded and stored in the Sophion Bioscience Oracle database (Sophion Bioscience, Copenhagen, Denmark). Analysis is performed using QPatch Assay and database software and data are compiled in Excel.
# Compound stocks are routinely made by the Gilead Sample Bank in plastic vials to 10 mM in dimethyl sulfoxide (DMSO). In some cases, when compounds are not soluble in DMSO, they are made in 100% ethanol. Stocks are sonicated as necessary. The extracellular solution for screening Late INa is composed of: 140 mM NaCl, 4 mM KCl, 1.8 mM CaCl2, 0.75 mM MgCl2 and 5 mM HEPES with pH adjusted to 7.4 using NaOH. The intracellular solution used to perfuse the inside of the cells for both the Late INa and Peak INa assays contains: 120 mM CsF, 20 mM CsCl, 5 mM EGTA, 5 mM HEPES and pH adjusted to 7.4 with CsOH. Compounds are diluted in extracellular solution to 1 μM in glass vials and then transferred to glass well plates before robotic addition to the cells. A 0 mM Na extracellular solution (0 Na-ECF) is used at the end of each experiment for the Late INa and Peak INa assays to measure baseline current contains: 140 mM N-methyl-D-glucamine; 4 mM KCl; 1.8 mM CaCl2; 0.75 mM MgCl2; 5 mM HEPES and pH was adjusted to 7.4 with HCl.
# For the hNav1.5 Late INa assay, sodium channels are activated every 10 seconds (0.1 Hz) by depolarizing the cell membrane to −20 mV for 250 milliseconds (ms) from a holding potential of −120 mV. In response to a −20 mV voltage step, typical hNav1.5 sodium currents activate rapidly to a peak negative current and then inactivate nearly completely within 3-4 ms.
# Compounds were tested to determine their activity in blocking the late sodium current. Late INa was generated by adding 10 μM Tefluthrin (pyrethroid) to the extracellular solution while recording Na currents. To confirm the block of late INa observed using the automated screening method, a second late INa enhancer (ATX-II) and the manual patch clamp method were used. ATX-II and tefluthrin occupy distinct, non-overlapping binding sites and modify Na^+ channel function differently to increase late INa. Compounds tested have been found generally to inhibit the enhanced late INa caused by either late INa enhancer. For the purposes of the screening, late INa is defined as the mean current between 225 ms and 250 ms after stepping to −20 mV to activate Na channels. After establishing the whole cell recording configuration, late INa activator is added to each well 4 times over a 16-17 minute period so that the late component of the Na current reaches a stable value. Compounds were then added (typically at 1 μM), in the presence of the late INa activator, with 3 additions over the course of 7 or 8 minutes. […]
# wild-type human cardiac sodium channel, hNav1.5, sequence (Q14524 whole entry): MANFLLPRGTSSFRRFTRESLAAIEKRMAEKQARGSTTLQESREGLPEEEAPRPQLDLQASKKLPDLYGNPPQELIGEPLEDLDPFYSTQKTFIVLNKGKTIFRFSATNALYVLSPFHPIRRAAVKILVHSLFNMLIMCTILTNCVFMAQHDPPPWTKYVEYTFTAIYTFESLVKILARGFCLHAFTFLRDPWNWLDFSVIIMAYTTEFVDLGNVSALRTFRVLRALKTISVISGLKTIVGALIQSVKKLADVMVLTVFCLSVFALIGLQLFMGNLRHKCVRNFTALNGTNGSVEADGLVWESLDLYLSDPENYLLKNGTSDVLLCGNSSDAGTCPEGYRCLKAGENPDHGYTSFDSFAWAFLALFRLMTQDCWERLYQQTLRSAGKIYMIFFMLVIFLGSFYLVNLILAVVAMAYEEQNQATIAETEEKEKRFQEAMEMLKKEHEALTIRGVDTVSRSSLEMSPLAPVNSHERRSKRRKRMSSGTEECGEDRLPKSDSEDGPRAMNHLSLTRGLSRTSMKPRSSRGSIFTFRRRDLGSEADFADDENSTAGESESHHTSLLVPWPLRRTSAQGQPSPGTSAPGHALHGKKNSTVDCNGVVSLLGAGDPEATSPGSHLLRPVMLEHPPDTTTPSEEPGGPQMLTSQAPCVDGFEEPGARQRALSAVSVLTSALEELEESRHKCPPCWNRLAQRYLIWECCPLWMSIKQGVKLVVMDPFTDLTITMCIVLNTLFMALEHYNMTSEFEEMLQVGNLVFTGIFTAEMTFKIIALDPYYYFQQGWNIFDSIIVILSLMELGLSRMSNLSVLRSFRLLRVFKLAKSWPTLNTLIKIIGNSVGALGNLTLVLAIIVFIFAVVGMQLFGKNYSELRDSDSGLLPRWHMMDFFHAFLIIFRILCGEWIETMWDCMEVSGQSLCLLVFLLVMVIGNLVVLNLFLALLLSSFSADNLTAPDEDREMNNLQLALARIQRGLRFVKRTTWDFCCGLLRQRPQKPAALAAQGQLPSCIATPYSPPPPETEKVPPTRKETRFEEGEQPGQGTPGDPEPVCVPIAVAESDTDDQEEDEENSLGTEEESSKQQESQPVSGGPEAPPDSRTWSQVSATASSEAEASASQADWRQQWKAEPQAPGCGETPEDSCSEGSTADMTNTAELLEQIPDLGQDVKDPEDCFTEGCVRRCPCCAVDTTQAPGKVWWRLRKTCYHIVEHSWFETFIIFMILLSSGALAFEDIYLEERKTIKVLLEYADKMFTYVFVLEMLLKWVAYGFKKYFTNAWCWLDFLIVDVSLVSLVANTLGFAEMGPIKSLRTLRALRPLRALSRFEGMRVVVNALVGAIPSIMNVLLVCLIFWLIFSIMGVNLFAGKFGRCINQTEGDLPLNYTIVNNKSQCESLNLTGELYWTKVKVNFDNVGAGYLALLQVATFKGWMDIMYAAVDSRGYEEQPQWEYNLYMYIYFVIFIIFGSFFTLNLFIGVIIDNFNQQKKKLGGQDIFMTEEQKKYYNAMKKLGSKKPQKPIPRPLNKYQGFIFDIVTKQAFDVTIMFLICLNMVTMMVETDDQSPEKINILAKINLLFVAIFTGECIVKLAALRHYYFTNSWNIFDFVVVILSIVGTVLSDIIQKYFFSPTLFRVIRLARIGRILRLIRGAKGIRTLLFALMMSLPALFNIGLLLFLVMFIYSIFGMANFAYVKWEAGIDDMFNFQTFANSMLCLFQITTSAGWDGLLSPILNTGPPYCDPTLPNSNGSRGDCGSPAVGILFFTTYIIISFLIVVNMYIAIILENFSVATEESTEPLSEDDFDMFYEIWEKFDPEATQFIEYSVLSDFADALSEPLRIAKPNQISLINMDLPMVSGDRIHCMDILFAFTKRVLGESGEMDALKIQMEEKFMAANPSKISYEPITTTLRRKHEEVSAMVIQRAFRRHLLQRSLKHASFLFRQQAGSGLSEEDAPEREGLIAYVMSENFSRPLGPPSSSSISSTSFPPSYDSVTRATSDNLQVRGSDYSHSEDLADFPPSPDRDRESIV
smiles,measurement,value
"FC(F)(F)c1ccc(-c2ccc3c(c2)-c2nnc(C4CC4)n2CCO3)cc1 [Compound I-5, 3-cyclopropyl-10-(4-(trifluoromethyl)phenyl)-5,6-dihydrobenzo[f][1,2,4]triazolo[4,3-d][1,4]oxazepine]",inhibition at 1 µM,18%
"OC1CCN(C2=NCCOc3ccc(-c4ccc(C(F)(F)F)cc4)cc32)C1 (stereo not drawn) [II-23, 1-(7-(4-(trifluoromethyl)phenyl)-2,3-dihydrobenzo[f][1,4]oxazepin-5-yl)pyrrolidin-3-ol]",inhibition at 1 µM,9%
"FC(F)(F)c1ccc(-c2ccc3c(c2)C(NC2CCNC2)=NCCO3)cc1 (stereo not drawn) [II-59, N-(pyrrolidin-3-yl)-7-(4-(trifluoromethyl)phenyl)-2,3-dihydrobenzo[f][1,4]oxazepin-5-amine]",inhibition at 1 µM,8%
"FC(F)(F)c1ccc(-c2ccc3c(c2)C(NC2CCN(Cc4ncccn4)C2)=NCCO3)cc1 (stereo not drawn) [II-34, N-(1-(pyrimidin-2-ylmethyl)pyrrolidin-3-yl)-7-(4-(trifluoromethyl)phenyl)-2,3-dihydrobenzo[f][1,4]oxazepin-5-amine]",inhibition at 1 µM,3%
"FC(F)(F)c1ccc(-c2ccc3c(c2)C(N2CCCC2c2ccccn2)=NCCO3)cc1 (stereo not drawn) [II-58, 5-(2-(pyridin-2-yl)pyrrolidin-1-yl)-7-(4-(trifluoromethyl)phenyl)-2,3-dihydrobenzo[f][1,4]oxazepine]",inhibition at 1 µM,18%
"CN[C@@H]1CCN(C2=NCCOc3ccc(-c4ccc(C(F)(F)F)cc4)cc32)C1 [II-39, (R)—N-methyl-1-(7-(4-(trifluoromethyl)phenyl)-2,3-dihydrobenzo[f][1,4]oxazepin-5-yl)pyrrolidin-3-amine]",inhibition at 1 µM,26%
"CN1CCN(C2=NCCOc3ccc(-c4ccc(C(F)(F)F)cc4)cc32)CC1 [II-52, 5-(4-methylpiperazin-1-yl)-7-(4-(trifluoromethyl)phenyl)-2,3-dihydrobenzo[f][1,4]oxazepine]",inhibition at 1 µM,10%
"FC(F)(F)c1ccc(-c2ccc3c(c2)C(Nc2ccccn2)=NCCO3)cc1 [II-19, N-(pyridin-2-yl)-7-(4-(trifluoromethyl)phenyl)-2,3-dihydrobenzo[f][1,4]oxazepin-5-amine]",inhibition at 1 µM,43%
"FC(F)(F)c1ccc(-c2ccc3c(c2)C(NCCOc2ccccc2Cl)=NCCO3)cc1 [II-24, N-(2-(2-chlorophenoxy)ethyl)-7-(4-(trifluoromethyl)phenyl)-2,3-dihydrobenzo[f][1,4]oxazepin-5-amine]",inhibition at 1 µM,26%
"FC(F)(F)c1ccc(-c2ccc3c(c2)-c2nc(C4CC4)cn2CCO3)cc1 [Compound I-20, 2-cyclopropyl-10-(4-(trifluoromethyl)phenyl)-5,6-dihydrobenzo[f]imidazo[1,2-d][1,4]oxazepine]",inhibition at 1 µM,12%
"CN(C(=O)OC(C)(C)C)[C@@H]1CCN(C2=NCCOc3ccc(-c4ccc(C(F)(F)F)cc4)cc32)C1 [II-38, (R)-tert-butyl methyl(1-(7-(4-(trifluoromethyl)phenyl)-2,3-dihydrobenzo[f][1,4]oxazepin-5-yl)pyrrolidin-3-yl)carbamate]",inhibition at 1 µM,18%
"FC(F)(F)c1ccc(-c2ccc3c(c2)C(N2CCN(C4CC4)CC2)=NCCO3)cc1 [II-31, 5-(4-cyclopropylpiperazin-1-yl)-7-(4-(trifluoromethyl)phenyl)-2,3-dihydrobenzo[f][1,4]oxazepine]",inhibition at 1 µM,24%
"FC1(F)CCN(C2=NCCOc3ccc(-c4ccc(C(F)(F)F)cc4)cc32)C1 [II-6, 5-(3,3-difluoropyrrolidin-1-yl)-7-(4-(trifluoromethyl)phenyl)-2,3-dihydrobenzo[f][1,4]oxazepine]",inhibition at 1 µM,7%
"FC(F)(F)c1ccc(-c2ccc3c(c2)C2=NCCCN2CCO3)cc1 [Compound I-8, 11-(4-(trifluoromethyl)phenyl)-3,4,6,7-tetrahydro-2H-benzo[f]pyrimido[1,2-d][1,4]oxazepine]",inhibition at 1 µM,9%
"FC(F)(F)c1ccc(-c2ccc3c(c2)C(Nc2ccccc2)=NCCO3)cc1 [II-32, N-phenyl-7-(4-(trifluoromethyl)phenyl)-2,3-dihydrobenzo[f][1,4]oxazepin-5-amine]",inhibition at 1 µM,26%
"FC(F)(F)c1ccc(-c2ccc3c(c2)-c2nncn2CCO3)cc1 [Compound I-3, 10-(4-(trifluoromethyl)phenyl)-5,6-dihydrobenzo[f][1,2,4]triazolo[4,3-d][1,4]oxazepine]",inhibition at 1 µM,13%
"CC(C)(C)OC(=O)NC1CN(C2=NCCOc3ccc(-c4ccc(C(F)(F)F)cc4)cc32)C1 [II-12, tert-butyl 1-(7-(4-(trifluoromethyl)phenyl)-2,3-dihydrobenzo[f][1,4]oxazepin-5-yl)azetidin-3-ylcarbamate]",inhibition at 1 µM,9%
"Cn1ccnc1CNC1=NCCOc2ccc(-c3ccc(C(F)(F)F)cc3)cc21 [II-17, N-((1-methyl-1H-imidazol-2-yl)methyl)-7-(4-(trifluoromethyl)phenyl)-2,3-dihydrobenzo[f][1,4]oxazepin-5-amine]",inhibition at 1 µM,10%
"CN(Cc1ccccc1)C1=NCCOc2ccc(-c3ccc(C(F)(F)F)cc3)cc21 [II-5, N-benzyl-N-methyl-7-(4-(trifluoromethyl)phenyl)-2,3-dihydrobenzo[f][1,4]oxazepin-5-amine]",inhibition at 1 µM,28%
"Cn1cncc1-c1cn2c(n1)-c1cc(-c3ccc(C(F)(F)F)cc3)ccc1OCC2 [Compound I-23, 2-(1-methyl-1H-imidazol-5-yl)-10-(4-(trifluoromethyl)phenyl)-5,6-dihydrobenzo[f]imidazo[1,2-d][1,4]oxazepine]",inhibition at 1 µM,3%
"FC(F)(F)c1ccc(-c2ccc3c(c2)C(NCc2ccccn2)=NCCO3)cc1 [II-10, N-(pyridin-2-ylmethyl)-7-(4-(trifluoromethyl)phenyl)-2,3-dihydrobenzo[f][1,4]oxazepin-5-amine]",inhibition at 1 µM,32%
"CC(C)(C)OC(=O)N[C@H]1CCN(C2=NCCOc3ccc(-c4ccc(C(F)(F)F)cc4)cc32)C1 [II-13, (S)-tert-butyl 1-(7-(4-(trifluoromethyl)phenyl)-2,3-dihydrobenzo[f][1,4]oxazepin-5-yl)pyrrolidin-3-ylcarbamate]",inhibition at 1 µM,15%
"FC(F)(F)c1ccc(-c2ccc3c(c2)C(N2CCC(NCc4ncccn4)C2)=NCCO3)cc1 (stereo not drawn) [II-37, N-(pyrimidin-2-ylmethyl)-1-(7-(4-(trifluoromethyl)phenyl)-2,3-dihydrobenzo[f][1,4]oxazepin-5-yl)pyrrolidin-3-amine]",inhibition at 1 µM,20%
"Fc1cccnc1CNC1=NCCOc2ccc(-c3ccc(C(F)(F)F)cc3)cc21 [II-9, N-((3-fluoropyridin-2-yl)methyl)-7-(4-(trifluoromethyl)phenyl)-2,3-dihydrobenzo[f][1,4]oxazepin-5-amine]",inhibition at 1 µM,23%
"CN(C1=NCCOc2ccc(-c3ccc(C(F)(F)F)cc3)cc21)C1CC1 [II-8, N-cyclopropyl-N-methyl-7-(4-(trifluoromethyl)phenyl)-2,3-dihydrobenzo[f][1,4]oxazepin-5-amine]",inhibition at 1 µM,13%
"CC(C)(C)OC(=O)NC1CCN(C2=NCCOc3ccc(-c4ccc(C(F)(F)F)cc4)cc32)C1 (stereo not drawn) [II-57, tert-butyl 1-(7-(4-(trifluoromethyl)phenyl)-2,3-dihydrobenzo[f][1,4]oxazepin-5-yl)pyrrolidin-3-ylcarbamate]",inhibition at 1 µM,23%
"Cc1nnc2n1CCOc1ccc(-c3ccc(C(F)(F)F)cc3)cc1-2 [Compound I-4, 3-methyl-10-(4-(trifluoromethyl)phenyl)-5,6-dihydrobenzo[f][1,2,4]triazolo[4,3-d][1,4]oxazepine]",inhibition at 1 µM,10%
